Where no end group is shown, it is not given here.
Legend:
PC12 cells = assay: PC12 cytotoxicity (crystal violet cell viability); assay type: cell-based; details: result in words
Protocol: Figure 2 Cytotoxic effects of γ-, δ- and ε-scoliidines on PC12 viability. The cells were exposed to peptides at different concentrations and times. The control and DMSO groups correspond to cells that have not been treated and cells that have been treated with a 5% concentration of DMSO, respectively. […] Statistical analysis was conducted using a one-way analysis of variance (ANOVA), followed by Dunnett’s post-test. The statistical difference when compared to the control group (p < 0.05) was indicated by asterisks.
(§1) All chemicals used here were analytical reagent grade (purity higher than 95%) purchased from different brands. The AChE enzyme was derived from Electrophorus electricus Type VI-S, and the ACE I enzyme was derived from rabbit lung and was acquired from Sigma-Aldrich Corporation (St. Louis, MO, USA). Neprilysin and the substrates [Abz-FRK (Dnp) P-OH and Abz-RGFK (Dnp)-OH] were supplied by Prof. Adriana Carmona from the Department of Biophysics at Federal University of São Paulo (SP, Brazil). PC12 cell (American Type Culture Collection ® CRL-1721™; Manassas, VA, USA) was used in the present study. Cells were routinely cultured in DMEM medium (Sigma-Aldrich Corporation; St. Louis, MO, USA), according to a previous study.
The cytotoxicity assay was performed using the staining of attached cells with crystal violet dye, according to the literature. Briefly, PC12 cells (5 × 10^3 cells per well; 96-well plates) were treated with different concentrations and times. Untreated cells or treated with DMSO (5%; v·v^−1) were included as controls. We measured the absorbance of dye solubilized in methanol at 570 nm using a microplate reader (BioTek Instruments, Inc., Winooski, VT, USA). We collected data from three distinct examinations, each performed three times, showing the percentage of cell viability relative to the control.
All results are shown as mean ± SD from three separate experiments (n = 3) in triplicate. One-way analysis of variance (ANOVA) was used for between-group comparisons, and Dunnett’s post-hoc test was used for multiple comparisons. Statistical significance was defined as p < 0.05. The analyses were done using GraphPad Prism 6.0 (GraphPad Software, Inc., La Jolla, CA, USA).

PC12 neuronal cells [1] = assay: PC12 mitochondrial metabolism (MTT reduction) / neuroprotection against H2O2-induced oxidative stress; assay type: cell-based; details: H2O2 0.5 mmol·L^−1, 20 h, percent compared to control group, oxidative stress model
Protocol: PC12 cells were pre-treated with γ-, δ- or ε-scoliidines for 4 h and then exposed to γ-, δ- or ε-scoliidines containing H2O2 for an additional 20 h, providing a protective model (Figure 3A). Cells subjected to a 20-h exposure to H2O2 represent an oxidative stress model.
Figure 3 Neuroprotective property of γ-, δ- and ε-scoliidines on mitochondrial metabolism of the PC12 cell line against H2O2-induced oxidative stress. (A) The experiment involved treating cells (5 × 10^3 cells per well in a 96-well plate) with γ, δ, and ε scoliidines (1 μmol·L^−1) for 4 h at 37 °C. After that, the medium was changed with a solution containing peptide (1 μmol·L^−1) and H2O2 (0.5 mmol·L^−1), and the cells were incubated for an additional 20 h. (B) Protective effects of peptides against neurotoxicity caused by oxidative stress. […]
PC12 cells (5 × 10^3 cells per well) seeded in a 96-well plate (Nest Biotechnology, Rahway, NJ, USA) were used to study the neuroprotective effects of peptides against H2O2-induced oxidative stress, according to a previous study. […] The mitochondrial metabolism was analyzed by 3-(4,5-dimethylthiazol-2-yl)-2,5-diphenyltetrazolium bromide (MTT; 0.5 mg·mL^−1 for 3 h of incubation at 37 °C) reduction assay. The absorbance of the MTT formazan dissolved in 100% DMSO was measured at a wavelength of 540 nm using a spectrophotometer (BioTek Instruments, Inc., Winooski, VT, USA). […]

[2] = tested on: acetylcholinesterase (AChE); assay: Acetylcholinesterase (AChE) activity, Ellman's method; assay type: biochemical, Electrophorus electricus; details: compared to control (100 ± 1.6%), mean ± SD
Description: Figure 4 Effects of γ-, δ- and ε-scoliidines on the function of acetylcholinesterase (AChE). The AChE activity was quantified as a percentage of hydrolyzed acetylthiocholine iodine substrate compared to the control (C; blank box). The data obtained from three separate experiments, each performed three times, is presented as mean ± SD.
as §1
The inhibition of AChE activity was determined spectrophotometrically based on Ellman’s method, as previously reported. We calculated AChE activity as the hydrolyzed acetylthiocholine iodide substrate concentration as a percentage of control.
All results are shown as mean ± SD from three separate experiments (n = 3) in triplicate. […]

PC12 neuronal cells [3] = details: result in words, ref [25]; cited from earlier work
Description: (§2) In recent years, our investigation has focused on scoliid wasp venoms. Scoliid wasps hunt and sting beetle larvae under the ground. Comprehensive LC-MS and MS/MS analysis of the venom extract from Scolia decorata ventralis identified two major peptide components named α- and β-scoliidine. […] This is the first case of solitary wasp venom peptides showing neuroprotective activity. Similarly, venom components of Campsomeriella annulata annulata were in ...

[4] = tested on: angiotensin-converting enzyme (ACE); assay: Peptide stability / cleavage by angiotensin-converting enzyme; assay type: in vitro ADME, rabbit; details: relative hydrolysis ratio; peptide 30 µmol·L^−1, ACE 7.5 ng, 37 °C, 4 h
Description: as §1
(§3) The stability tests of peptides (30 µmol·L^−^1) were tested after incubation separately with ACE and NEP (7.5 ng) at 37 °C for 4 h, according to previous reports.

human neprilysin (NEP) = assay: Peptide stability / cleavage by neprilysin; assay type: in vitro ADME; details: relative hydrolysis ratio; peptide 30 µmol·L^−1, NEP 7.5 ng, 37 °C, 4 h
Description: as §1, §3

neuronal PC12 cells = details: result in words, ref [26]; cited from earlier work
Description: as §2

[5] = tested on: acetylcholine (ACh) receptors of insect central nervous system; details: result in words; insects' central nervous system; ref [18],[19],[20]; cited from earlier work
Description: Scoliid wasp venoms were the first solitary wasp venoms to be studied between the years 1987 and 1990, and the presence of bradykinin-related peptides was reported. […] Since the f ...

[6] = all concentrations and times assessed, 570 nm

In the case of `C[S+](C)[O-]` [DMSO, reference compound], the “cell viability with DMSO” value (PC12 cells; DMSO 5% (v·v^−1)) is reported as “decrease in cell viability”.

With `OO` [H2O2] the “mitochondrial metabolism of PC12 cells treated only with H2O2” value (PC12 neuronal cells [1]) was 75.8 ± 2.4%.

For `CCOP(=O)(OCC)OP(=O)(OCC)OCC` [TEPP, tetraethyl pyrophosphate], the “AChE activity with positive control” value [2] was 27.8 ± 6.5%.

In the case of DYVTVKGFSPLR [α-scoliidine], the “neuroprotective effect against oxidative stress-induced neurotoxicity” value (PC12 neuronal cells [3]) is listed as “only β-scoliidine showed a neuroprotective effect”.

For DYVTVKGFSPLREP [ε-scoliidine], the cell viability (PC12 cells; 0.01 μmoL·L^−1, up to 6 h of treatment, 570 nm, three experiments in triplicate) was “enhanced cell viability”, the cell viability (PC12 cells; 10 μmoL·L^−1, 24 h, 570 nm, three experiments in triplicate) was “cell viability decreased” and the “concentration dependence of decrease in cell viability” value (PC12 cells; 570 nm) was “decrease in cell viability was dependent on the concentration”. For the same compound, the “Cleavage (%) ACE” value [4] was <0.01% and the “Cleavage (%) NEP” value (human neprilysin (NEP)) was <0.01%.

For DYVTVKGFSPLRKA [β-scoliidine], the “Cleavage (%) ACE” value [4] was <0.01% and the “Cleavage (%) NEP” value (human neprilysin (NEP)) was <0.01%.

In the case of PRLRRLTGLSPLR [α-campsomerin], the “cell growth potentiating effect” value (neuronal PC12 cells) is given as “showed a cell growth potentiating effect”.

For PRLRRLTGLSPLRAP [β-campsomerin], the “cell growth potentiating effect” value (neuronal PC12 cells) is given as “had no effect”.

In the case of “RPPGFSPFR [bradykinin, reference compound]”, the “Cleavage (%) ACE” value [4] is reported as 100% and the “Cleavage (%) NEP” value (human neprilysin (NEP)) is reported as 100%.

For RPPGFTPFR [Thr^6-bradykinin], the “blocking action on ACh receptors” value [5] is given as “showing a blocking action on ACh receptors”.

In the case of RPPGFTPFRKA [Megascoliakinin], the “blocking action on ACh receptors” value [5] is given as “showing a blocking action on ACh receptors”.

With YVTVKGFSPLR [γ-scoliidine] the cell viability (PC12 cells; [6]) was “cell viability remained unchanged”, the “Cleavage (%) ACE” value [4] was <0.01% and the “Cleavage (%) NEP” value (human neprilysin (NEP)) was <0.01%.

With YVTVKGFSPLREP [δ-scoliidine] the cell viability (PC12 cells; [6]) was “cell viability remained unchanged”, the “Cleavage (%) ACE” value [4] was <0.01% and the “Cleavage (%) NEP” value (human neprilysin (NEP)) was <0.01%.
